# Counter-ions that a name gives are not always drawn. Like-named read-outs stand apart in the source and are kept apart here.
# Assays:
# 5-HT2A receptor [1] = target: T1, 5-HT2A receptor (Homo sapiens, UniProt P28223); assay: Functional activity, FLIPR calcium assay, CHO cells expressing human 5-HT2A; assay type: cell-based; design: expressed in transfected cells; host or cells: CHO cells; conditions: for h5-HT2A Relative Efficacy: maximum fluorescent signal relative to 10 μM 5-HT (defined as 100%)
# Procedure: (§1) The functional activity of compounds of formula (I) was assayed using a Fluorimetric Imaging Pate reader (FLIPR). CHO cells expressing the human 5-HT2C or human 5-HT2A receptors were counted and plated into standard 96 well microtitre plates on the day before testing to give a confluent monolayer. The cells were then dye loaded with the calcium sensitive dye, Fluo-3-AM. Unincorporated dye was removed using an automated cell washer to leave a total volume of 100 μL/well of assay buffer (Hanks balanced salt solution containing 20 mM Hepes and 2.5 mM probenecid). The drug (dissolved in 50 µL of the assay buffer) was added at a rate of 70 μL/sec to each well of the FLIPR 96 well plate during fluorescence measurements. The measurements were taken at 1 sec intervals and the maximum fluorescent signal was measured (approx 10–15 secs after drug addition) and compared with the response produced by 10 μM 5-HT (defined as 100%) to which it was expressed as a percentage response (relative efficacy). Dose response curves were constructed using Graphpad Prism (Graph Software Inc.).
# human 5-HT2B receptors = target: T2, human 5-HT2B receptors (Homo sapiens, UniProt P41595); assay: Binding to 5-HT2B receptor, [3H]-5-HT, Method (b)
# T2 construct: expressed in transfected cells; host or cells: CHO cell line
# Procedure: (§2) The binding of compounds of formula (I) to serotonin receptors was determined in vitro by standard methods. The preparations were investigated in accordance with the assays given below.
# Method (b): For the binding to the 5-HT2B receptor, the 5-HT2B receptors were radiolabeled with [^3H]-5-HT. The affinity of the compounds for human 5-HT2B receptors in a CHO cell line was determined according to the procedure of K. Schmuck, C. Ullmer, P. Engels and H. Lubbert, FEBS Lett., 1994, 342, 85–90.
# (§3) The Ki value is definied as an inhibition constance and is determined from the IC50 value as described in Cheng, Yung-Chi and Prusoff, W. H., Biochem. Pharmacol., 1973, 22(23), 3099–108.
# 5-HT2C receptor [2] = target: T3, 5-HT2C receptor (Homo sapiens, UniProt P28335); assay: Binding to 5-HT2C receptor, [3H]-5-HT, Method (a); design: expressed in transfected cells; host or cells: CHO cell line
# T3 sequence (P28335 33-458): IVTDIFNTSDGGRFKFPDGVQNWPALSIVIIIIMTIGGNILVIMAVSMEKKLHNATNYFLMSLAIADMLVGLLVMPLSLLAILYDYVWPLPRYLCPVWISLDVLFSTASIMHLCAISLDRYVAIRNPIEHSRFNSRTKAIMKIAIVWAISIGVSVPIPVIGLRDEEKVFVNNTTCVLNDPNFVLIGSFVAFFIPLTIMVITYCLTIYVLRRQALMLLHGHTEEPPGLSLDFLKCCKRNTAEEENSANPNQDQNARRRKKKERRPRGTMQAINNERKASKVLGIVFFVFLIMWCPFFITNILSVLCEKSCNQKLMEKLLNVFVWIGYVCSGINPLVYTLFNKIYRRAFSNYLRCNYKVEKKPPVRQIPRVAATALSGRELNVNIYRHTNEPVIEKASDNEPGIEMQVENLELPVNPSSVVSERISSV
# Procedure: as §2
# Method (a): For the binding to the 5-HT2C receptor, the 5-HT2C receptors were radiolabeled with [^3H]-5-HT. The affinity of the compounds for 5-HT2C receptors in a CHO cell line was determined according to the procedure of D. Hoyer, G. Engel and H. O. Kalkman, European J. Pharmacol., 1985, 118, 13–23.
# as §3
# 5-HT2A receptor [3] = target: T1, 5-HT2A receptor; assay: Binding to 5-HT2A receptor, [125I]-DOI, Method (c); design: expressed in transfected cells; host or cells: CHO cell line
# Procedure: as §2
# Method (c): For the binding to the 5-HT2A receptor, the 5-HT2A receptors were radiolabeled with [^125I]-DOI. The affinity of the compounds for 5-HT2A receptors in a CHO cell line was determined according to the procedure of D. J. McKenna and S. J. Peroutka, J. Neurosci., 1989, 9, 3482–90.
# as §3
# 5-HT2C receptor [4] = target: T3, 5-HT2C receptor; assay: Functional activity, FLIPR calcium assay, CHO cells expressing human 5-HT2C; assay type: cell-based; design: expressed in transfected cells; host or cells: CHO cells; conditions: for h5-HT2c Relative Efficacy: maximum fluorescent signal relative to 10 μM 5-HT (defined as 100%)
# Procedure: as §1
# [5] = system: human volunteers and obese subjects; conditions: literature, cited from earlier work
# rats = conditions: literature; cited from earlier work
# [6] = FLIPR, CHO cells, Fluo-3-AM, read-out: h5-HT2A EC50
# [7] = Method (b), [3H]-5-HT, human 5-HT2B in CHO cell line, Ki calculated from IC50, read-out: Ki (2B)
# [8] = Method (a), [3H]-5-HT, CHO cell line, Ki calculated from IC50 (Cheng-Prusoff), read-out: Ki (2C)
# [9] = Method (c), [125I]-DOI, CHO cell line, Ki calculated from IC50, read-out: Ki (2A)
# [10] = FLIPR, CHO cells, Fluo-3-AM, read-out: h5-HT2c EC50
# T1 sequence (P28223 whole entry): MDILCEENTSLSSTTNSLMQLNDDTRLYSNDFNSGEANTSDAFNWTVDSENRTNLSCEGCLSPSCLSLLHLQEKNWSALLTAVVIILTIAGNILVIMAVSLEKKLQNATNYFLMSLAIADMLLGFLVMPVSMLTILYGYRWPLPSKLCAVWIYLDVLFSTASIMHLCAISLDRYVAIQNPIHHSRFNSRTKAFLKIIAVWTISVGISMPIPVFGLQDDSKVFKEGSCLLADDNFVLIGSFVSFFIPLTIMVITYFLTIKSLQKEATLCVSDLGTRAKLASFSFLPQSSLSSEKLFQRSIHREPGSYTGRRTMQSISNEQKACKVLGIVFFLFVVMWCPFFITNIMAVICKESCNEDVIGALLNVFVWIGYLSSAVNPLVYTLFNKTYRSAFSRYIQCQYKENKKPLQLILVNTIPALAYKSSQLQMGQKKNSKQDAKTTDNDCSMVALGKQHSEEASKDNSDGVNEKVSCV
# T2 sequence (P41595 whole entry): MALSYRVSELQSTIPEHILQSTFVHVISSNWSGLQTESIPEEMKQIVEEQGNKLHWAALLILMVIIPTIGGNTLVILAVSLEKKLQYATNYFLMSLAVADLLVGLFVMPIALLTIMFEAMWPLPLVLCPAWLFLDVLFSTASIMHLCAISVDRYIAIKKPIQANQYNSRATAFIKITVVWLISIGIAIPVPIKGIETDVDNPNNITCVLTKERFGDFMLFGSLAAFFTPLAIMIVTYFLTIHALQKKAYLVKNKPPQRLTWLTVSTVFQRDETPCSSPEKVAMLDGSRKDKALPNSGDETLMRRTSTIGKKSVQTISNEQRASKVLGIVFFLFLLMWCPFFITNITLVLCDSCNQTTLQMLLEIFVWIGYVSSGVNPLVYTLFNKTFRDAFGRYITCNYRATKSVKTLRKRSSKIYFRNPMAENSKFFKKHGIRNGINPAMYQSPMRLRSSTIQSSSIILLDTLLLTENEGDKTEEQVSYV
structure (smiles),measurement,setting,value
C[C@@H]1CNC[C@H](C)N1C(=O)OCc1c(F)ccc(Br)c1F.Cl,melting point,,207 to 210 °C
CCCOc1ccc(F)c(COC(=O)N2CCNCC2)c1.O=C(O)/C=C/C(=O)O,melting point,,155.9 to 156.1 °C
CCCOc1cc(F)c(COC(=O)N2CCNCC2CC)c(F)c1.O=C(O)/C=C/C(=O)O (racemic),melting point,,145 to 165 °C (dec.)
"Cl.O=C(OCc1ccc(OC(F)F)cc1)N1CCNCC1 [Example 22, Piperazine-1-carboxylic acid 4-difluoromethoxy-benzyl ester hydrochloride]",EC50,5-HT2A receptor [1]; [6],220 nM
same,h5-HT2A Relative Efficacy,5-HT2A receptor [1],24%
same,Ki,human 5-HT2B receptors; [7],4000 nM
same,Ki,5-HT2C receptor [2]; [8],44 nM
same,Ki,5-HT2A receptor [3]; [9],44 nM
same,EC50,5-HT2C receptor [4]; [10],100 nM
same,h5-HT2c Relative Efficacy,5-HT2C receptor [4],56%
Cl.O=C(OCc1ccc(Br)cc1F)N1CCNCC1,melting point,,209.5 to 209.6 °C
"Clc1cccc(N2CCNCC2)c1 [mCPP, m-chlorophenylpiperazine]",appetite and body weight,"[5]; obese male and female subjects, subchronic treatment for a 14 day period",decreased the appetite and body weight
same,food intake,"[5]; single dose, female volunteers",decreased food intake
same,food intake in rats,rats,reduce food intake
CCCCOc1ccc(F)c(COC(=O)N2CCNCC2)c1.O=C(O)/C=C/C(=O)O,melting point,,142.4 to 143.5 °C
"CC(C)NC(=O)Oc1ccc(CSC(=O)N2CCNCC2)cc1 [Example 63, S-4-[(2-Propylamino)carbonyl]oxybenzyl piperazine-1-thiocarboxylate hydrochloride]",EC50,5-HT2A receptor [1],370 nM
same,h5-HT2A Relative Efficacy,5-HT2A receptor [1],25%
same,Ki,human 5-HT2B receptors,8300 nM
same,Ki,5-HT2C receptor [2],33 nM
same,Ki,5-HT2A receptor [3],550 nM
same,EC50,5-HT2C receptor [4],33 nM
same,h5-HT2c Relative Efficacy,5-HT2C receptor [4],74%
C[C@@H]1CNCCN1C(=O)OCc1ccc(OC(F)F)cc1.O=C(O)/C=C/C(=O)O,melting point,,123.9 to 124.5 °C
"Cl.O=C(SCc1ccc(OCc2ccccc2)cc1)N1CCNCC1 [Example 32, Piperazine-1-carbothioic acid S-(4-benzyloxy-benzyl) ester hydrochloride]",EC50,5-HT2A receptor [1]; [6],560 nM
same,h5-HT2A Relative Efficacy,5-HT2A receptor [1],22%
same,Ki,human 5-HT2B receptors; [7],370 nM
same,Ki,5-HT2C receptor [2]; [8],15 nM
same,Ki,5-HT2A receptor [3]; [9],6 nM
same,EC50,5-HT2C receptor [4]; [10],38 nM
same,h5-HT2c Relative Efficacy,5-HT2C receptor [4],65%
CCCCOc1ccc(F)c(COC(=O)N2[C@H](C)CNC[C@@H]2C)c1.O=C(O)/C=C/C(=O)O,melting point,,153.2 to 153.5 °C
CCCOc1ccc(F)c(COC(=O)N2CCNC[C@H]2C)c1.O=C(O)/C=C/C(=O)O,melting point,,162.6 to 162.7 °C
CCCOc1cc(F)c(COC(=O)N2CCNC[C@H]2C)c(F)c1.O=C(O)/C=C/C(=O)O,melting point,,193.9 to 194 °C
CCCCOc1ccc(F)c(COC(=O)N2CCNC[C@H]2C)c1.O=C(O)/C=C/C(=O)O,melting point,,171.6 to 171.7 °C
Cl.O=C(SCc1ccc(OCc2ccc(F)cc2)cc1)N1CCNCC1,melting point,,169 to 169.5 °C
CCOc1ccc(F)c(COC(=O)N2[C@H](C)CNC[C@@H]2C)c1.O=C(O)/C=C/C(=O)O,melting point,,142.9 to 143.3 °C
"Cc1noc(C)c1COc1cc(F)c(COC(=O)N2[C@H](C)CNC[C@@H]2C)c(F)c1 [Example 121, cis-2,6-Dimethyl-piperazine-1-carboxylic acid 4-(3,5-dimethyl-isoxazol-4-ylmethoxy)-2,6-difluoro-benzyl esterfumarate]",EC50,5-HT2A receptor [1]; [6],550 nM
same,h5-HT2A Relative Efficacy,5-HT2A receptor [1],11%
same,Ki,human 5-HT2B receptors; [7],8400 nM
same,Ki,5-HT2C receptor [2]; [8],15 nM
same,Ki,5-HT2A receptor [3]; [9],200 nM
same,EC50,5-HT2C receptor [4]; [10],22 nM
same,h5-HT2c Relative Efficacy,5-HT2C receptor [4],91%
CC(C)COc1ccc(F)c(COC(=O)N2[C@H](C)CNC[C@@H]2C)c1.O=C(O)/C=C/C(=O)O,melting point,,178.6 to 178.7 °C

# Reference: US7022707B2, “Piperazine derivatives” (Hoffman-La Roche Inc., priority 2000, dated 2006)
